From PMC6851183, “Computational design and characterization of nanobody-derived peptides that stabilize the active conformation of the β2-adrenergic receptor (β2-AR)” (Scientific Reports, 2019)
Ends that are not written are not given here.

Biological target: T1, β2-AR/RLuc8 with GFP^2/β-arr2 Arg393Glu, Arg395Glu (Homo sapiens, UniProt P07550)
T1 construct: expressed in transfected cells; host or cells: HEK-293
Experiment: BRET^2-based β-arrestin 2 recruitment assay
Format: cell-based

T1 sequence (P07550 whole entry, change not shown): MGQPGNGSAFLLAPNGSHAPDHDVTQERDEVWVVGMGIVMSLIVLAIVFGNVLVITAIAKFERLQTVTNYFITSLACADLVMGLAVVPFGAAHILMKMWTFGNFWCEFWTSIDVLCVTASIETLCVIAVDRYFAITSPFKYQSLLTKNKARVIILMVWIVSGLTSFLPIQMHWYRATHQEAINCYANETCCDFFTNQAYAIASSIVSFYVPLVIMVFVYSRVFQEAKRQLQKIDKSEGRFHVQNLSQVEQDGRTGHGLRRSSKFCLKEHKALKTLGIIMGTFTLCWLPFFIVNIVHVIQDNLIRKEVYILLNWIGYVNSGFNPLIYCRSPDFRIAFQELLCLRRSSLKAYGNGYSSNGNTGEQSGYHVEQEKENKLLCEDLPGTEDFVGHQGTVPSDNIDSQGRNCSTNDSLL

## EDTAVYYCNANWDLLSD [P3]
  EC50: ~1 nM
Homogenized or permeabilized cells, 10 µM isoproterenol, P3 10^−12 to 10^−5 M, dose-dependent, maximum
  reduction in isoproterenol-induced BRET^2 signal: up to 10%
